Reference: US20240158446A1, “CYCLIC COMPOUND HAVING SELECTIVE INHIBITORY ACTION ON KRAS OVER HRAS AND NRAS” (CHUGAI SEIYAKU KABUSHIKI KAISHA, priority 2021, published 2024)

Legend:
[1] = biological target: GDP-bound NRAS wild-type protein (Homo sapiens, UniProt P01111); assay: Binding to NRAS by surface plasmon resonance (SPR), Single Cycle Kinetics; settings: SPR KD ratio NRAS/KRAS, class symbols
[2] = biological target: GDP-bound HRAS wild-type protein (Homo sapiens, UniProt P01112); assay: Binding to HRAS by surface plasmon resonance (SPR), Single Cycle Kinetics; settings: SPR KD ratio HRAS/KRAS, class symbols
GDP-bound HRAS wild-type protein, sequence (P01112 whole entry): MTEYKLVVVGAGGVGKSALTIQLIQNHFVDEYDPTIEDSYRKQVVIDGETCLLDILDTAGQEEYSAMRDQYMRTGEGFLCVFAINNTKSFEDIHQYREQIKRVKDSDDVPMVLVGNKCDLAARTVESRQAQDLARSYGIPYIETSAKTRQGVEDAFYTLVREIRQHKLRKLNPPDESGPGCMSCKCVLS

GDP-bound NRAS wild-type protein, sequence (P01111 whole entry): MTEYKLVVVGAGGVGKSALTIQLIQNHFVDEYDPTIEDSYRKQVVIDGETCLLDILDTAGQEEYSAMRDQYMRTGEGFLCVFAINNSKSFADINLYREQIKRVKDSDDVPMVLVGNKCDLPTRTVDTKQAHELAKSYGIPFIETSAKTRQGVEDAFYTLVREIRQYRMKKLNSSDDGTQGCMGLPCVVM

| Compound | NRAS/KRAS (ratio of KD value with respect to GDP-bound NRAS wild-type protein to KD value with respect to KRAS) [1] | HRAS/KRAS (ratio of KD value with respect to GDP-bound HRAS wild-type protein to KD value with respect to KRAS) [2] |
| --- | --- | --- |
| CCO[C@@H]1C[C@H]2C(=O)NC3(CC(C)(C)C3)C(=O)N(C)[C@@H](C3CCCC3)C(=O)N(C)[C@H](C(=O)N(C)C)CC(=O)N(C)[C@@H](CC(C)C)C(=O)N[C@@H]([C@@H](C)CC)C(=O)N(C)CC(=O)N(C)[C@H]3C/C=C\CCN(C3=O)[C@@H](Cc3ccc(C4CC4)cc3)C(=O)N(C)CC(=O)N[C@@H](CCc3ccc(C(F)(F)F)c(OC)c3)C(=O)N2C1 [PP2691, (2S,8S,12R,14S,20S,23S,27S,30S,36S,38Z)-20-cyclopentyl-2-[(4-cyclopropylphenyl)methyl]-12-ethoxy-27-isobutyl-8-[2-[3-methoxy-4-(trifluoromethyl)phenyl]ethyl]-N,N,3′,3′,4,19,22,26,32,35-decamethyl-30-[(1S)-1-methylpropyl]-3,6,9,15,18,21,25,28,31,34,42-undecaoxo-spiro[1,4,7,10,16,19,22,26,29,32,35-undecazatricyclo[34.5.1.0^10,14]dotetracont-38-ene-17,1′-cyclobutane]-23-carboxamide] | AA (a compound having 20 or more is denoted as AA) | A (a compound having 10 or more and less than 20 is denoted as A) |
| CCO[C@@H]1C[C@H]2C(=O)NC3(CC(C)(C)C3)C(=O)N(C)[C@@H](C3CCCC3)C(=O)N(C)[C@H](C(=O)N(C)C)CC(=O)N(C)[C@@H](CC(C)C)C(=O)N[C@@H]([C@@H](C)CC)C(=O)N(C)CC(=O)N(C)[C@H]3C/C=C\CCN(C3=O)[C@@H](Cc3ccc(C(C)C)cc3)C(=O)N(C)CC(=O)N[C@@H](CCc3ccc(C(F)(F)F)c(OC)c3)C(=O)N2C1 [PP2692] | A (a compound having 10 or more and less than 20 is denoted as A) | A (a compound having 10 or more and less than 20 is denoted as A) |
| CCO[C@@H]1C[C@H]2C(=O)NC3(CC(C)(C)C3)C(=O)N(C)[C@@H](C3CCCC3)C(=O)N(C)[C@H](C(=O)N(C)C)CC(=O)N(C)[C@@H](CC(C)C)C(=O)N[C@@H]([C@@H](C)CC)C(=O)N(C)CC(=O)N(C)[C@H]3C/C=C\CCN(C3=O)[C@@H](Cc3ccc(OC)cc3)C(=O)N(C)CC(=O)N[C@@H](CCc3ccc(C(F)(F)F)c(OC)c3)C(=O)N2C1 [PP2693] | A (a compound having 10 or more and less than 20 is denoted as A) | B (a compound having 3 or more and less than 10 is denoted as B) |
| CCO[C@@H]1C[C@H]2C(=O)NC3(CC(C)(C)C3)C(=O)N(C)[C@@H](C3CCCC3)C(=O)N(C)[C@H](C(=O)N(C)C)CC(=O)N(C)[C@@H](CC(C)C)C(=O)N[C@@H]([C@@H](C)CC)C(=O)N(C)CC(=O)N(C)[C@H]3C/C=C\CCN(C3=O)[C@@H](Cc3ccc(C(C)=O)cc3)C(=O)N(C)CC(=O)N[C@@H](CCc3ccc(C(F)(F)F)c(OC)c3)C(=O)N2C1 [PP2694] | A (a compound having 10 or more and less than 20 is denoted as A) | B (a compound having 3 or more and less than 10 is denoted as B) |
| CCO[C@@H]1C[C@H]2C(=O)NC3(CC(C)(C)C3)C(=O)N(C)[C@@H](C3CCCC3)C(=O)N(C)[C@H](C(=O)N(C)C)CC(=O)N(C)[C@@H](CC(C)C)C(=O)N[C@@H]([C@@H](C)CC)C(=O)N(C)CC(=O)N(C)[C@H]3C/C=C\CCN(C3=O)[C@@H](Cc3ccc4c(c3)CCC4(F)F)C(=O)N(C)CC(=O)N[C@@H](CCc3ccc(C(F)(F)F)c(OC)c3)C(=O)N2C1 [PP2695] | A (a compound having 10 or more and less than 20 is denoted as A) | B (a compound having 3 or more and less than 10 is denoted as B) |
| CCOC[C@H]1C(=O)N[C@@H]([C@@H](C)CC)C(=O)N(C)CC(=O)N(C)[C@H]2C/C=C\CCN(C2=O)[C@@H](Cc2ccc(C)cc2F)C(=O)N(C)CC(=O)N[C@@H](CCc2ccc(C(F)(F)F)c(OC)c2)C(=O)N2C[C@@H](C)C[C@H]2C(=O)NC2(CC(C)(C)C2)C(=O)N(C)[C@@H](C2CCCC2)C(=O)N(C)[C@H](C(=O)N(C)CC)CC(=O)N1C [PP2697] | A (a compound having 10 or more and less than 20 is denoted as A) | A (a compound having 10 or more and less than 20 is denoted as A) |
| CCOC[C@H]1C(=O)N[C@@H]([C@@H](C)CC)C(=O)N(C)CC(=O)N(C)[C@H]2C/C=C\CCN(C2=O)[C@@H](Cc2ccc(C)c(F)c2)C(=O)N(C)CC(=O)N[C@@H](CCc2ccc(C(F)(F)F)c(OC)c2)C(=O)N2C[C@@H](C)C[C@H]2C(=O)NC2(CC(C)(C)C2)C(=O)N(C)[C@@H](C2CCCC2)C(=O)N(C)[C@H](C(=O)N(C)CC)CC(=O)N1C [PP2698] | A (a compound having 10 or more and less than 20 is denoted as A) | A (a compound having 10 or more and less than 20 is denoted as A) |
| CCOC[C@H]1C(=O)N[C@@H]([C@@H](C)CC)C(=O)N(C)CC(=O)N(C)[C@H]2C/C=C\CCN(C2=O)[C@@H](Cc2ccc(C(C)(F)F)cc2)C(=O)N(C)CC(=O)N[C@@H](CCc2ccc(C(F)(F)F)c(OC)c2)C(=O)N2C[C@@H](C)C[C@H]2C(=O)NC2(CC(C)(C)C2)C(=O)N(C)[C@@H](C2CCCC2)C(=O)N(C)[C@H](C(=O)N(C)CC)CC(=O)N1C [PP2699] | A (a compound having 10 or more and less than 20 is denoted as A) | B (a compound having 3 or more and less than 10 is denoted as B) |
| CCOC[C@H]1C(=O)N[C@@H]([C@@H](C)CC)C(=O)N(C)CC(=O)N(C)[C@H]2C/C=C\CCN(C2=O)[C@@H](Cc2ccc(C3CC3)cc2)C(=O)N(C)CC(=O)N[C@@H](CCc2ccc(C(F)(F)F)c(OC)c2)C(=O)N2C[C@@H](C)C[C@H]2C(=O)NC2(CC(C)(C)C2)C(=O)N(C)[C@@H](C2CCCC2)C(=O)N(C)[C@H](C(=O)N(C)CC)CC(=O)N1C [PP2700] | A (a compound having 10 or more and less than 20 is denoted as A) | B (a compound having 3 or more and less than 10 is denoted as B) |
| CCOC[C@H]1C(=O)N[C@@H]([C@@H](C)CC)C(=O)N(C)CC(=O)N(C)[C@H]2C/C=C\CCN(C2=O)[C@@H](Cc2ccc(C(C)C)cc2)C(=O)N(C)CC(=O)N[C@@H](CCc2ccc(C(F)(F)F)c(OC)c2)C(=O)N2C[C@@H](C)C[C@H]2C(=O)NC2(CC(C)(C)C2)C(=O)N(C)[C@@H](C2CCCC2)C(=O)N(C)[C@H](C(=O)N(C)CC)CC(=O)N1C [PP2701] | A (a compound having 10 or more and less than 20 is denoted as A) | A (a compound having 10 or more and less than 20 is denoted as A) |
